Experimental data from patent US20080139617A1 (priority 2006, published 2008).

target: T1, human V1a receptor (Homo sapiens, UniProt P37288); test: human V1a receptor binding (3H-Vasopressin SPA, membranes of transfected HEK293 cells); settings: displacement of 3H-Vasopressin; Ki calculated from IC50 using the Cheng-Prussoff equation
T1 construct: expressed in transfected cells; host or cells: HEK293 cells, transiently transfected; membrane preparation
Experimental: The human V1a receptor was cloned by RT-PCR from total human liver RNA. The coding sequence was subcloned in an expression vector after sequencing to confirm the identity of the amplified sequence. […] Cell membranes were prepared from HEK293 cells transiently transfected with the expression vector and grown in 20 liter fermenters with the following protocol.
50 g of cells were resuspended in 30 ml freshly prepared ice cold Lysis buffer (50 mM HEPES, 1 mM EDTA, 10 mM MgCl2 adjusted to pH=7.4+complete cocktail of protease inhibitor (Roche Diagnostics)), homogenized with Polytron for 1 min, and sonicated on ice for 2×2 minutes at 80% intensity (Vibracell sonicator). The preparation was centrifuged 20 min at 500 g at 4° C., the pellet was discarded, and the supernatant centrifuged 1 hour at 43'000 g at 4° C. (19'000 rpm). The pellet was resuspended in 12.5 ml Lysis buffer+12.5 ml Sucrose 20% and homogenized using a Polytron for 1-2 min. The protein concentration was determined by the Bradford method and aliquots were stored at −80° C. until use. For binding studies, 60 mg Yttrium silicate SPA beads (Amersham) were mixed with an aliquot of membrane in binding buffer (50 mM Tris, 120 mM NaCl, 5 mM KCl, 2 mM CaCl2, 10 mM MgCl2) for 15 minutes with mixing. 50 ul of bead/membrane mixture was then added to each well of a 96 well plate, followed by 50 ul of 4 nM 3H-Vasopressin (American Radiolabeled Chemicals). For total binding measurement 100 ul of binding buffer were added to the respective wells, for non-specific binding 100 ul of 8.4 mM cold vasopressin were added, and for compound testing 100 ul of a serial dilution of each compound in 2% DMSO were added. The plate was incubated Ih at room temperature, centrifuged 1 min at 1000 g and counted on a Packard Top-Count. Non-specific binding counts were subtracted from each well and data was normalized to the maximum specific binding set at 100%. To calculate an IC 50, the curve was fitted using a non-linear regression model (XLfit) and the Ki was calculated using the Cheng-Prussoff equation.

T1 sequence (P37288 whole entry): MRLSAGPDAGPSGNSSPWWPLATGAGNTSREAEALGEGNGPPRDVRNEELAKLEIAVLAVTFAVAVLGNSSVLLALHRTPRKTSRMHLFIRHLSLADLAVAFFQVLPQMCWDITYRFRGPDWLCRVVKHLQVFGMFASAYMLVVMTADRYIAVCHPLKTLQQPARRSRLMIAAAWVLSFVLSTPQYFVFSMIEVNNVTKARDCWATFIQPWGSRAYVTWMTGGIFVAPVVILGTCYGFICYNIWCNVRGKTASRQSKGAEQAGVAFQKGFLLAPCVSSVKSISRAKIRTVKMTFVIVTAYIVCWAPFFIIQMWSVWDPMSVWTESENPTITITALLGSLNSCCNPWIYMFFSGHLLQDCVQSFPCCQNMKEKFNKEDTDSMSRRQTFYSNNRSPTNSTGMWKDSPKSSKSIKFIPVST

Structure (SMILES) | Ki [nM]
N#CCn1c(C(=O)N2CCC(n3c(=O)[nH]c4ccccc43)CC2)cc2cc(Br)ccc21 [Example 3, {5-Bromo-2-[4-(2-oxo-2,3-dihydro-benzoimidazol-1-yl)-piperidine-1-carbonyl]-indol-1-yl}-acetonitrile] | 12
COc1ccc2[nH]c(C(=O)N3CCC(n4c(=O)[nH]c5ccccc54)CC3)c(NC(=O)c3ccccc3[N+](=O)[O-])c2c1 [Example 10, N-{5-Methoxy-2-[4-(2-oxo-2,3-dihydro-benzoimidazol-1-yl)-piperidine-1-carbonyl]-1H-indol-3-yl}-2-nitro-benzamide] | 20
Cc1ccc2[nH]c(C(=O)N3CCC(n4c(=O)[nH]c5ccccc54)CC3)c(NC(=O)c3ccc(F)cc3)c2c1 [Example 11] | 39.8
CCOC(=O)Cc1c(C(=O)N2CCC(n3c(=O)[nH]c4ccccc43)CC2)[nH]c2ccccc12 [Example 14, {2-[4-(2-Oxo-2,3-dihydro-benzoimidazol-1-yl)-piperidine-1-carbonyl]-1H-indol-3-yl}-acetic acid ethyl ester] | 41.7
O=C(c1cc2cccc(OCc3ccccc3)c2[nH]1)N1CCC(n2c(=O)[nH]c3ccccc32)CC1 [Example 37, 1-[1-(7-Benzyloxy-1H-indole-2-carbonyl)-piperidin-4-yl]-1,3-dihydro-benzoimidazol-2-one] | 21.9
N#CCn1c(C(=O)N2CCC(n3c(=O)[nH]c4ccccc43)CC2)cc2cc(Cl)ccc21 [Example 45, {5-Chloro-2-[4-(2-oxo-2,3-dihydro-benzoimidazol-1-yl)-piperidine-1-carbonyl]-indol-1-yl}-acetonitrile] | 32
N#CCc1cc(Cl)cc2cc(C(=O)N3CCC(n4c(=O)[nH]c5ccccc54)CC3)[nH]c12 [Example 46, {5-Chloro-2-[4-(2-oxo-2,3-dihydro-benzoimidazol-1-yl)-piperidine-1-carbonyl]-1H-indol-7-yl}-acetonitrile] | 35.5
O=C(c1cc2cc(Cl)ccc2[nH]1)N1CCC(N2C(=O)Cc3ccccc32)CC1 [Example 47, 1-[1-(5-Chloro-1H-indole-2-carbonyl)-piperidin-4-yl]-1,3-dihydro-indol-2-one] | 64.6
O=C(c1cc2cc(Cl)ccc2[nH]1)N1CCC(n2nnc3ccccc32)CC1 [Example 48, (4-Benzotriazol-1-yl-piperidin-1-yl)-(5-chloro-1H-indol-2-yl)-methanone] | 385
